Source: US11873320B2 (REATA PHARMACEUTICALS HOLDINGS, LLC, priority 2013, dated 2024)
Like-named read-outs stand apart in the source and are kept apart here.

Key:
ocular inflammation = ocular inflammation after paracentesis in rabbits; assay type: in vivo, rabbit; conditions: 0.01% RTA 408 in the formulation
Protocol: Each rabbit was given three instillations within 60 minutes before induction of paracentesis and two instillations within 30 minutes after induction of paracentesis. Each instillation was 50 μL and given in both eyes. Aqueous humor for 6 animals per time-point was collected 30 minutes and again 2 hours after induction of paracentesis. The amount of inflammation was determined by protein concentration in the aqueous humor.

cynomolgus monkeys = conditions: for ALP (U/L) / ALT (U/L) / AST (U/L) / Albumin / BUN / Chol / Cr / Glucose / TG / Tot Bil / Tot Prot: Day 14
NQO1 and HMOX1 protein = assay: Nrf2 target protein levels in BV2 cells; assay type: cell-based, mouse; conditions: concentrations up to 125 nM
NQO1 = NQO1 enzymatic activity in RAW264.7 cells; assay type: cell-based, mouse; conditions: 24 hours
Protocol: Consistent with induction of Nrf2 target genes and corresponding protein products, treatment of RAW264.7 mouse macrophage cells for 24 hours increased NQO1 enzymatic activity in a dose-dependent manner, with increases evident at 7.8 nM (FIG. 6).

[1] = test system: Nrf2 protein expression in SK-N-SH cells; assay: in-cell western NQO1 assay, SK-N-SH cells; assay type: cell-based; conditions: Homo sapiens, 72 h, 3 days incubation, read-out: EC50 for induction of Nrf2 protein expression in SK-N-SH cells
Protocol: (§1) HMOX1 protein was not detected in untreated or RTA 408-treated SH-SY5Y cells. […] The same amount of 63170 (54.6 nM) was required.
The EC50 was measured using an in-cell western NQO1 assay where the cells were incubated with the compound under evaluation for 3 days. After incubation with the compound of interest, the cells were reacted with mouse NQO1 antibody and then the next day the cells were reacted with IRDye-800CW-anti-mouse IgG antibody. The target signals were visualized and then analyzed.

CYP1A2 = assay: CYP450 induction in cultured human hepatocytes: CYP1A2; assay type: in vitro ADME; conditions: up to 3 μM
Sprague Dawley rats = assay: 14-day rat toxicity study (tissue distribution, Nrf2 targets)
transaminase mRNA levels = assay: transaminase gene expression in AML-12 hepatocytes; assay type: cell-based, mouse; conditions: 250 nM or 500 nM, 18 hours
From the text: (§2) One hypothesis for this effect is that AIMs directly or indirectly increase transaminase gene expression in the absence of cellular toxicity.

rats = assay: 28-day toxicity study in rats; assay type: in vivo, rat
From the text: as §2

NQO1 protein = assay: Nrf2 target protein levels in SH-SY5Y cells; assay type: cell-based, human; conditions: dose-dependent
Protocol: as §1

[2] = test system: bleomycin-induced pulmonary fibrosis; assay: bleomycin-induced pulmonary fibrosis in mice; assay type: in vivo, mouse; conditions: 10, 30, or 100 mg/kg, 39 days
Protocol: Bleomycin was given on Day 0. Daily weights were measured. BAL fluid cell counts were obtained at sacrifice. […] No significant improvement in chronic inflammation score, interstitial fibrosis, or number of fibrotic foci was observed.
On the last day of dosing, lung tissue was collected and histology was performed to evaluate the extent of inflammation and interstitial fibrosis. […] Additional evaluation was performed using a rat model of pulmonary fibrosis that has been extensively characterized at the Lovelace Respiratory Research Institute. In this study, rats were challenged with bleomycin or saline by intratracheal administration on day 0. […] For the remaining animals, bronchoalveolar lavage fluid was collected on day 28 for assessment of pro-inflammatory infiltrates, and lung tissue was analyzed for hydroxyproline levels and histopathology. Challenge with bleomycin sulfate induced a substantial release of neutrophils and an increase in soluble collagen in the BALF, as well as an increase in hydroxyproline in the lung.

[3] = test system: bleomycin-induced pulmonary fibrosis
[4] = metabolism in rodent liver microsomes; assay type: in vitro ADME, mice, rats; conditions: 60-minute incubation, NADPH and UGT
LPS-induced NO = assay: in vivo NO suppression after LPS, CD-1 mice; conditions: mouse
[5] = topical administration pharmacokinetics in rats; assay type: in vivo, rat; conditions: 0.01 to 3% in sesame oil
From the text: The topical administration was formulated as a suspension in sesame oil.

[6] = mouse tissue distribution, 25 mg/kg PO QD×3
ovalbumin-induced asthma = ovalbumin-induced asthma in mice; assay type: in vivo, mouse
From the text: Mice were sensitized with an IP injection of ovalbumin and aluminum hydroxide on Day 0 and Day 14 and challenged intranasally with ovalbumin in saline on Days 14, 25, 26, and 27. […] An increase in the number of T cells and B cells was also observed in the vehicle-treated mice.

[7] = 10 mg/kg, four hours after final dose, Day 14

CC1(C)CC[C@]2(NC(=O)C(C)(F)F)CC[C@]3(C)[C@H](C(=O)C=C4[C@@]5(C)C=C(C#N)C(=O)C(C)(C)[C@@H]5CC[C@]43C)[C@@H]2C1 [RTA 408, N-((4aS,6aR,6bS,8aR,12aS,14aR,14bS)-11-cyano-2,2,6a,6b,9,9,12a-heptamethyl-10,14-dioxo-1,2,3,4,4a,5,6,6a,6b,7,8,8a,9,10,12a,14,14a,14b-octadecahydropicen-4a-yl)-2,2-difluoropropanamide]
aqueous humor protein concentration (ocular inflammation): reduction in aqueous humor protein similar to that of the highest concentration of any of the other reference compounds
ALP (U/L) (cynomolgus monkeys; 10 mg/kg): 382 U/L
ALT (U/L) (cynomolgus monkeys; 10 mg/kg): 46 U/L
AST (U/L) (cynomolgus monkeys; 10 mg/kg): 38 U/L
Albumin (cynomolgus monkeys; 10 mg/kg): 4 g/dL
BUN (cynomolgus monkeys; 10 mg/kg): 27 mg/dL
Chol (cynomolgus monkeys; 10 mg/kg): 144 mg/dL
Cr (cynomolgus monkeys; 10 mg/kg): 0.68 mg/dL
Glucose (cynomolgus monkeys; 10 mg/kg): 39 mg/dL
TG (cynomolgus monkeys; 10 mg/kg): 82 mg/dL
Tot Bil (cynomolgus monkeys; 10 mg/kg): 0.23 mg/dL
Tot Prot (cynomolgus monkeys; 10 mg/kg): 7.2 g/dL
ALP (U/L) (cynomolgus monkeys; 30 mg/kg): 416 U/L
ALT (U/L) (cynomolgus monkeys; 30 mg/kg): 47 U/L
AST (U/L) (cynomolgus monkeys; 30 mg/kg): 43 U/L
Albumin (cynomolgus monkeys; 30 mg/kg): 4 g/dL
BUN (cynomolgus monkeys; 30 mg/kg): 20 mg/dL
Chol (cynomolgus monkeys; 30 mg/kg): 122 mg/dL
Cr (cynomolgus monkeys; 30 mg/kg): 0.58 mg/dL
Glucose (cynomolgus monkeys; 30 mg/kg): 53 mg/dL
TG (cynomolgus monkeys; 30 mg/kg): 64 mg/dL
Tot Bil (cynomolgus monkeys; 30 mg/kg): 0.2 mg/dL
Tot Prot (cynomolgus monkeys; 30 mg/kg): 7.2 g/dL
ALP (U/L) (cynomolgus monkeys; 100 mg/kg): 390 U/L
ALT (U/L) (cynomolgus monkeys; 100 mg/kg): 43 U/L
AST (U/L) (cynomolgus monkeys; 100 mg/kg): 37 U/L
Albumin (cynomolgus monkeys; 100 mg/kg): 3.2 g/dL
BUN (cynomolgus monkeys; 100 mg/kg): 24 mg/dL
Chol (cynomolgus monkeys; 100 mg/kg): 93 mg/dL
Cr (cynomolgus monkeys; 100 mg/kg): 0.55 mg/dL
Glucose (cynomolgus monkeys; 100 mg/kg): 32 mg/dL
TG (cynomolgus monkeys; 100 mg/kg): 61 mg/dL
Tot Bil (cynomolgus monkeys; 100 mg/kg): 0.18 mg/dL
Tot Prot (cynomolgus monkeys; 100 mg/kg): 6 g/dL
toxicity suggested by clinical chemistry data (cynomolgus monkeys; 14 days): no obvious toxicity
mRNAs of Nrf2 target genes in liver and lung (cynomolgus monkeys; PO QD×14): induces Nrf2 target genes in monkey tissues
tolerability (cynomolgus monkeys; all doses, 14 days): well-tolerated without adverse clinical signs
Nrf2 target enzyme activity (NQO1, GSR) in various tissues (cynomolgus monkeys; monkey, in vivo): induces Nrf2 target enzyme activity
NQO1 and HMOX1 protein levels (NQO1 and HMOX1 protein): increased NQO1 and HMOX1 protein levels
concentration at which increase in NQO1 enzymatic activity is evident (NQO1): 7.8 nM
EC50 [1]: 56.4 nM
induction of enzyme activity (CYP1A2): not an inducer
brain exposure over in vitro IC50 for NO inhibition (Sprague Dawley rats; [7]): 240 fold
lung exposure over in vitro IC50 for NO inhibition (Sprague Dawley rats; [7]): 294 fold
toxicity finding in the high dose group (Sprague Dawley rats; 100 mg/kg, tissues collected on Day 6): observed toxicities
liver NQO1 and GST enzyme activities (Sprague Dawley rats; PO QD×14): induced dose-dependently
alanine transaminase 1 (Alt1 or Gpt1) mRNA (transaminase mRNA levels): increased mRNA levels
alanine transaminase 2 (Alt2 or Gpt2) mRNA (transaminase mRNA levels): no effect
aspartate transaminase 1 (Ast1 or Got1) mRNA (transaminase mRNA levels): increased mRNA levels
aspartate transaminase 2 (Ast2 or Got2) mRNA (transaminase mRNA levels): reduced mRNA levels
transaminases (rats): Transaminase elevations
NQO1 protein levels (NQO1 protein): increased NQO1 protein levels
inflammation and interstitial fibrosis (histology) [2]: no statistically significant effects
tolerability finding that stopped dosing on day 14 ([3]; 30 mg/kg): excessive dehydration and diarrhea
polymorphonuclear (PMN) cell infiltration into the lungs ([3]; 3 and 10 mg/kg, 28 days): significantly suppressed
collagen deposition (trichrome staining) ([3]; rat, in vivo): significant decrease in collagen deposition
NQO1, Txnrd, Gsr, and Gst enzyme activity in lungs ([3]; rats exposed to bleomycin): significantly and dose-dependently increased
parent molecule remaining [4]: > 65%
NO in vivo (LPS-induced NO): dose-dependently suppresses NO in vivo
plasma concentrations after topical administration [5]: lower plasma concentrations relative to similar oral dosing
levels in the CNS [6]: Notable levels were observed in the CNS
B cells within the airways (ovalbumin-induced asthma; 30 mg/kg): significantly reduced the number and percentage of B cells
macrophages detected in the airways (ovalbumin-induced asthma; 3 and 30 mg/kg): significantly reduced the number of macrophages
